Test results: PubChem BioAssay (NCI)
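The compound was tested at five concentrations on cells cultured in 96-well plates, with a 48-hour exposure period. TGI denotes the concentration required for complete inhibition of growth.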

Experiments:
Assay in all cases: NCI-60 cell line screen, 48 h
OVCAR-5 ovarian = test system: OVCAR-5 ovarian
MDA-N = test system: MDA-N
786-0 renal = test system: 786-0 renal
HOP-18 NSCLC = test system: HOP-18 NSCLC
DMS 273 small cell lung = test system: DMS 273 small cell lung
M19-MEL melanoma = test system: M19-MEL melanoma
DMS 114 small cell lung = test system: DMS 114 small cell lung
KM20L2 colon = test system: KM20L2 colon
SNB-78 CNS = test system: SNB-78 CNS
DLD-1 colon = test system: DLD-1 colon
LXFL 529 NSCLC = test system: LXFL 529 NSCLC
XF 498 CNS = test system: XF 498 CNS

Row | SMILES | TGI (OVCAR-5 ovarian) [µM] | TGI (MDA-N) [µM] | TGI (786-0 renal) [µM] | also measured
1 | Cn1c(=O)c2c(nc3sc4c(n32)C(=O)c2c(O)ccc(O)c2C4=O)n(C)c1=O | 48.6 | 4.1 | 4.37 | 
2 | N#Cc1ccc(CSC2=C(c3ccc(Cl)cc3)S/C(=C3\SC(SCc4ccc(C#N)cc4)=C(c4ccc(Cl)cc4)S3)S2)cc1 | > 100 | > 100 | > 100 | 
3 | COc1ccc2[nH]cc(C(=O)C(=O)NC34CC5CC(CC(C5)C3)C4)c2c1 | > 100 | > 100 | 47.5 | 
4 | CC(Oc1ccccc1Cl)C(=O)NN1C(=O)CC(=O)NC1=S (stereo not drawn) | > 100 | > 100 | > 100 | 
5 | CN(C)CCCSc1nc2c(c(=N)n1-c1ccccc1)c(=S)n(-c1ccccc1)c(=S)n2-c1ccccc1 | 24.5 | 3.18 | 2.66 | 
6 | C=C(C)[C@@]1(O)CCCC[C@@H]1CC(Sc1ccccc1)Sc1ccccc1 | 30.7 | 47.8 | 39.9 | 
7 | O=C(OCc1ccc([N+](=O)[O-])cc1)N1c2ccccc2[C@@]23O[C@]24CCC[C@H]3C#C/C=C\C#C[C@H]14 | > 100 | > 100 | > 100 | 
8 | OC[P+](CO)(CO)C12CC3CC(CC(C3)C1)C2 | > 100 | > 100 | > 26 | 
9 | O=C(CC(C(=O)c1cccs1)c1ccsc1)c1ccccc1 (stereo not drawn) | > 100 | > 100 | > 100 | 
10 | O=c1[nH]nc(Cc2ccccc2)n1CCCl | > 100 | > 100 | > 100 | 
11 | CC1(C)C2CC(O)C1CCC2=O (stereo not drawn) | > 100 | > 100 | > 100 | 
12 | COc1ccc2nc3c([N+](=O)[O-])ccc(NCCCN(C)C)c3c(NCCCN(C)C)c2c1 |  |  | 2.13 | 
13 | CC(C)(C)OC(=O)NC(Cc1ccc(O)cn1)C(=O)O (stereo not drawn) | > 100 | > 100 | > 100 | 
14 | O=C(CCCN1CCC(Nc2ccccc2)(c2nnnn2C2CCCCC2)CC1)c1ccc(F)cc1 | 19.6 | 18.1 | 15.9 | 
15 | Clc1ccc(CCn2cncn2)cc1 | > 100 |  | > 100 | TGI (HOP-18 NSCLC): > 100 µM; TGI (DMS 273 small cell lung): > 100 µM; TGI (M19-MEL melanoma): > 100 µM; TGI (DMS 114 small cell lung): > 100 µM; TGI (KM20L2 colon): > 100 µM; TGI (SNB-78 CNS): > 100 µM; TGI (DLD-1 colon): > 100 µM; TGI (LXFL 529 NSCLC): > 100 µM
16 | N#CC1=C(c2ccccc2)C(=C2Nc3ccccc3N2)C2S/C(=C\c3ccccc3)C(=O)N2C1=N (stereo not drawn) | 5.84 |  | 6.09 | TGI (DMS 273 small cell lung): 4.9 µM; TGI (M19-MEL melanoma): 7.97 µM; TGI (DMS 114 small cell lung): 4.64 µM; TGI (XF 498 CNS): 5.57 µM; TGI (KM20L2 colon): 6.56 µM; TGI (SNB-78 CNS): 6.86 µM; TGI (DLD-1 colon): 12 µM; TGI (LXFL 529 NSCLC): 10.8 µM
17 | COC(=O)C1=C(OC(=O)/C(=C/c2ccccc2)c2ccc(Cl)cc2)C(C(=O)OC)[C@@]2(O)[C@@H](C(=O)OC)[C@H](C)C[C@@H]1[C@@H]2C(=O)OC (stereo partly drawn) | > 100 | > 100 | > 100 | 
18 | COC(=O)C(C)(C)[C@@H]1OC(=O)N(S(=O)(=O)c2c(C)cc(C)cc2C)[C@H]1C(C)C | > 100 | > 100 | > 100 | 
19 | Cc1occc1C(=S)Nc1ccc(Cl)c(/C=N/OC(C)(C)C)c1 | 31.3 | 37 | 49.9 | 

Row | SMILES | TGI (OVCAR-5 ovarian) [µM] | TGI (MDA-N) [µM] | TGI (786-0 renal) [µM] | also measured
20 | COc1cc2cc(C(=O)Nc3cc4n(n3)-c3ccccc3C4)[nH]c2c(OC)c1OC | 17.8 | 8.52 | 17.8 | 
21 | O=C(O)c1nc2ccc(C(F)(F)F)cc2nc1NCc1ccc(Cl)c(Cl)c1 | 26.3 | 35.1 | 29.3 | 
22 | COC(=O)C1=COC(OC2OC(CO)C(O)C(O)C2O)C2C3CN4CCc5c([nH]c6ccccc56)C4(CC12)O3 (stereo not drawn) | > 100 | > 100 | > 100 | 
23 | O=C1/C(=C/c2ccco2)N=C2Sc3c(nc[nH]c3=O)N12 | > 100 | > 100 | > 100 | 
24 | Cc1ccc([N+](=O)[O-])cc1S(=O)(=O)Nc1ccc(C2=NOC(c3cccs3)C2)cc1 (stereo not drawn) | > 100 | 10.4 | 37.7 | 
25 | CC(=O)OCC1OC(n2c3c(cc(C#N)c2=S)CCC3)C(OC(C)=O)C(OC(C)=O)C1OC(C)=O (stereo not drawn) | > 100 | > 100 | > 100 | 
26 | C[C@]12CC[C@H]3[C@@H](CC=C4C[C@@H](O)CC[C@@]43C)[C@@H]1C/C(=C/c1ccccc1)[C@@H]2O | > 76.5 | 65.5 | > 51.9 | 
27 | N#Cc1ccc(N2CCOCC2)cc1 | > 100 | > 100 | > 100 | 
28 | COC(=O)c1ccccc1NC(=NC1CCCCCC1)NS(=O)(=O)c1ccc(C)cc1 | > 100 | > 100 | > 100 | 
29 | CCN(CC)C1CCC(C2c3cc4c(cc3OC(N3CCOCC3)C2C)OCO4)CC1 (stereo not drawn) | 96.9 | 38 | > 100 | 
30 | COC(=O)C1=C(OC(=O)c2ccccc2)C(C(=O)OC)[C@@]2(O)[C@@H](C(=O)OC)[C@H](C)C[C@@H]1[C@@H]2C(=O)OC (stereo partly drawn) | > 100 | 63.5 | > 100 | 
31 | CCOC(=O)C1(C(=O)OCC)C[C@@H](C)[C@@H](O)C1 | > 100 | > 100 | > 100 | 
32 | C/C=C1\CC2C(=O)CCC2C2c3ccccc3OC12 (stereo not drawn) | > 100 | 0.24 | > 100 | 
33 | [N-]=[N+]=Nc1c(Cl)c(Cl)nc2ccccc12 | > 100 | > 100 | > 100 | 
34 | CN(C)CCCNc1ncnc2c1ncn2C1OC(CO)C(O)C1O (stereo not drawn) | > 100 | > 100 | > 100 | 
35 | NNC(=O)CCSc1ccccc1 | > 100 | > 100 | > 100 | 
36 | CCOC(=O)C1(N)CCc2[nH][nH]c(=O)c2C1 (stereo not drawn) | > 100 | > 100 | > 100 | 
37 | CC1CC/C(=C\c2ccc(N(C)C)cc2)C2=C1C(c1ccc(N(C)C)cc1)NC(=S)N2 (stereo not drawn) | > 100 | > 100 | > 100 | 
